Assay results as given in patent US7589097B2, “Triazol[4,5-d] pyramidine derivatives and their use as purinergic receptor antagonists” (Vernalis Research Limited, priority 2001, dated 2009).
Counter-ions that a name gives are not always drawn.

SMILES	melting point
Nc1nc(-c2ccco2)c2nnn(Cc3cccc(CBr)n3)c2n1 [Example 218, 3-(6-bromomethyl-2-pyridylmethyl)-7-(2-furyl)-3H-[1,2,3]triazolo[4,5-d]pyrimidine-5-amine]	196 to 196.1 °C
CC(C)OCc1cccc(Cn2nnc3c(-c4ccco4)nc(N)nc32)n1 [Example 247, 7-(2-furyl)-3-(6-isopropoxymethyl-2-pyridylmethyl)-3H-[1,2,3]triazolo[4,5-d]pyrimidine-5-amine]	134.5 to 134.6 °C
Nc1nc(-c2ccco2)c2nnn(Cc3ccc(Cl)cc3[N+](=O)[O-])c2n1 [Example 119, 3-(4-chloro-2-nitrobenzyl)-7-(2-furyl)-3H-[1,2,3]triazolo[4,5-d]pyrimidine-5-amine]	> 230 °C
Cc1ccc(-c2nc(N)nc3c2nnn3Cc2ccc(N)c(F)c2)o1 [Example 174, 3-(4-amino-3-fluorobenzyl)-7-(5-methyl-2-furyl)-3H-[1,2,3]triazolo[4,5-d]pyrimidine-5-amine]	> 200 °C (dec.)
CN(C)c1cccc(Cn2nnc3c(-c4ccco4)nc(N)nc32)c1 [Example 162, 3-(3-(N,N-dimethylamino)benzyl)-7-(2-furyl)-3H-[1,2,3]triazolo[4,5-d]pyrimidine-5-amine]	195.1 to 195.2 °C
COCc1cccc(Cn2nnc3c(-c4ccco4)nc(N)nc32)n1 [Example 112, 7-(2-furyl)-3-(6-methoxymethyl-2-pyridylmethyl)-3H-[1,2,3]triazolo[4,5-d]pyrimidine-5-amine]	190.4 to 191.4 °C
Nc1nc(-c2ccco2)c2nnn(CC(=O)O)c2n1 [Example 26, (5-Amino-7-(2-furyl)-3H-[1,2,3]triazolo[4,5-d]pyrimidin-3-yl)acetic acid]	291 to 291.1 °C
Nc1nc(-c2ccco2)c2nnn(Cc3ccccn3)c2n1 [Example 24, 7-(2-Furyl)-3-(2-pyridylmethyl)-3H-[1,2,3]triazolo[4,5-d]pyrimidine-5-amine]	196.9 to 197.1 °C
Nc1cccc(Cn2nnc3c(-c4ccccc4)nc(N)nc32)c1 [Example 151, 3-(3-aminobenzyl)-7-phenyl-3H-[1,2,3]triazolo[4,5-d]pyrimidine-5-amine]	251.2 to 251.5 °C
CCc1cccc(Cn2nnc3c(-c4ccco4)nc(N)nc32)n1 [Example 135, 3-(6-ethyl-2-pyridylmethyl)-7-(2-furyl)-3H-[1,2,3]triazolo[4,5-d]pyrimidine-5-amine]	208.6 to 208.8 °C
COc1ccc(F)c(Cn2nnc3c(-c4ccco4)nc(N)nc32)c1 [Example 51, 3-(2-fluoro-5-methyoxybenzyl)-7-(2-furyl)-3H-[1,2,3]triazolo[4,5-d]pyrimidine-5-amine]	182.9 to 183.1 °C
Nc1nc(-c2ccco2)c2nnn(Cc3ccc(F)c(N)c3)c2n1 [Example 165, 3-(3-amino-4-fluorobenzyl)-7-(2-furyl)-3H-[1,2,3]triazolo[4,5-d]pyrimidine-5-amine]	259.7 to 259.8 °C
COc1ccccc1Cn1nnc2c(-c3ccc(C)o3)nc(N)nc21 [Example 72, 3-(2-methyoxybenzyl)-7-(5-methyl-2-furyl)-3H-[1,2,3]triazolo[4,5-d]pyrimidine-5-amine]	195.4 to 196.5 °C
COc1ccccc1Cn1nnc2c(-c3ccco3)nc(N)nc21 [Example 77, 7-(2-furyl)-3-(2-methoxybenzyl)-3H-[1,2,3]triazolo[4,5-d]pyrimidine-5-amine]	212.1 to 214.3 °C
Cc1nc(Cn2nnc3c(-c4ccco4)nc(N)nc32)cs1 [Example 100, 7-(2-furyl)-3-(2-methylthiazol-4-ylmethyl)-3H-[1,2,3]triazolo[4,5-d]pyrimidine-5-amine]	285.7 to 285.9 °C
Cc1cccc(Cn2nnc3c(-c4ccco4)nc(N)nc32)c1 [Example 23, 7-(2-furyl)-3-(3-methylbenzyl)-3H-[1,2,3]triazolo[4,5-d]pyrimidine-5-amine]	187.3 to 187.7 °C
Nc1nc(-c2cncs2)c2nnn(Cc3cccc([N+](=O)[O-])c3)c2n1 [Example 45, 3-(3-nitrobenzyl)-7-(5-thiazolyl)-3H-[1,2,3]triazolo[4,5-d]pyrimidine-5-amine]	190.4 to 190.8 °C
CC(=O)NCc1ccccc1Cn1nnc2c(-c3ccco3)nc(N)nc21 [Example 178, N-(2-(5-amino-7-(2-furyl)-3H-[1,2,3]triazolo[4,5-d]pyrimidin-3-ylmethyl)benzyl)acetamide]	216.7 to 218.4 °C
Nc1nc(-c2ccco2)c2nnn(Cc3cc(F)ccc3N)c2n1 [Example 171, 3-(2-amino-5-fluorobenzyl)-7-(2-furyl)-3H-[1,2,3]triazolo[4,5-d]pyrimidine-5-amine]	219.3 °C
CC(=O)NCc1cccc(Cn2nnc3c(-c4ccco4)nc(N)nc32)c1 [Example 68, N-(3-(5-amino-7-(2-furyl)-3H-[1,2,3]triazolo[4,5-d]pyrimidin-3-ylmethyl)benzyl)acetamide]	228.1 to 229.3 °C

SMILES	melting point
Cc1noc(C)c1Cn1nnc2c(-c3ccco3)nc(N)nc21 [Example 91, 3-(3,5-dimethylisoxazol-4-ylmethyl)-7-(2-furyl)-3H-[1,2,3]triazolo[4,5-d]pyrimidine-5-amine]	284.3 to 284.5 °C
COc1cccc(Cn2nnc3c(-c4ccco4)nc(N)nc32)n1 [Example 32, 7-(2-furyl)-3-(6-methoxy-2-pyridylmethyl)-3H-[1,2,3]triazolo[4,5-d]pyrimidine-5-amine]	191.4 to 192 °C
CC(C)COCc1cccc(Cn2nnc3c(-c4ccco4)nc(N)nc32)n1 [Example 217, 7-(2-furyl)-3-(6-isobutyloxymethyl-2-pyridylmethyl)-3H-[1,2,3]triazolo[4,5-d]pyrimidine-5-amine]	146.7 to 149.3 °C
Nc1nc(-c2ccco2)c2nnn(Cc3ccc4nn[nH]c4c3)c2n1 [Example 158, 3-(1H-Benzotriazol-5-ylmethyl)-7-(2-furyl)-3H-[1,2,3]triazolo[4,5-d]pyrimidine-5-amine]	> 300 °C (dec.)
Cc1nc(-c2nc(N)nc3c2nnn3Cc2cccc(N)c2)sc1C [Example 240, 3-(3-aminobenzyl)-7-(4,5-dimethyl-2-thiazolyl)-3H-[1,2,3]triazolo[4,5-d]pyrimidine-5-amine]	254.3 to 254.5 °C
Nc1nc(-c2ccco2)c2nnn(Cc3cccs3)c2n1 [Example 33, 7-(2-furyl)-3-(2-thienylmethyl)-3H-[1,2,3]triazolo[4,5-d]pyrimidine-5-amine]	204.1 to 204.2 °C
Nc1nc(-c2ccco2)c2nnn(Cc3ccc(Cl)c(N)c3)c2n1 [Example 114, 3-(3-amino-4-chlorobenzyl)-7-(2-furyl)-3H-[1,2,3]triazolo[4,5-d]pyrimidine-5-amine]	256.7 to 257.1 °C
Cc1cc(Cn2nnc3c(-c4ccco4)nc(N)nc32)cc(C)c1N [Example 262, 3-(4-amino-3,5-dimethylbenzyl)-7-(2-furyl)-3H-[1,2,3]triazolo[4,5-d]pyrimidine-5-amine]	250.1 to 261.3 °C
Nc1nc(-c2ccco2)c2nnn(Cc3cccc(F)n3)c2n1 [Example 71, 3-(6-fluoro-2-pyridylmethyl)-7-(2-furyl)-3H-[1,2,3]triazolo[4,5-d]pyrimidine-5-amine]	228.7 to 228.9 °C
Cc1c(N)cccc1Cn1nnc2c(-c3ccco3)nc(N)nc21 [Example 89, 3-(3-amino-2-methylbenzyl)-7-(2-furyl)-3H-[1,2,3]triazolo[4,5-d]pyrimidine-5-amine]	247.1 to 247.2 °C
CC(c1ccc(C(F)(F)F)cc1)n1nnc2c(-c3ccco3)nc(N)nc21 (stereo not shown) [Example 256, 7-(2-furyl)-3-(1-(4-frifluoromethylphenyl)ethyl)-3H-[1,2,3]triazolo[4,5-d]pyrimidine-5-amine]	167.6 to 168.1 °C
Cc1cnc(-c2nc(N)nc3c2nnn3Cc2ccccc2F)s1 [Example 38, 3-(2-fluorobenzyl)-7-(5-methyl-2-thiazolyl)-3H-[1,2,3]triazolo[4,5-d]pyrimidine-5-amine]	242 to 242.1 °C
CC(C)c1ccc(Cn2nnc3c(-c4ccco4)nc(N)nc32)cn1 [Example 228, 7-(2-furyl)-3-(6-isopropyl-3-pyridylmethyl)-3H-[1,2,3]triazolo[4,5-d]pyrimidine-5-amine]	164.3 to 169.3 °C
CCc1cc(Cn2nnc3c(-c4ccco4)nc(N)nc32)ccn1 [Example 136, 3-(2-ethyl-4-pyridylmethyl)-7-(2-furyl)-3H-[1,2,3]triazolo[4,5-d]pyrimidine-5-amine]	172.7 to 173.2 °C
Cc1ccc(-c2nc(N)nc3c2nnn3Cc2cccc([N+](=O)[O-])c2C)o1 [Example 267, 7-(5-methyl-2-furyl)-3-(2-methyl-3-nitrobenzyl)-3H-[1,2,3]triazolo[4,5-d]pyrimidine-5-amine]	255.6 to 255.7 °C
COc1ccc(Cn2nnc3c(-c4ccco4)nc(N)nc32)cc1OC (as salt: trifluoroacetate) [Example 122, 3-(3,4-dimethoxybenzyl)-7-(2-furyl)-3H-[1,2,3]triazolo[4,5-d]pyrimidine-5-amine trifluoroacetate salt]	227.5 to 228.5 °C
CC(C)(C)OC(=O)n1cc(Cn2nnc3c(-c4ccco4)nc(N)nc32)c2ccccc21 [Example 204, tert-butyl 3-(5-amino-7-(2-furyl)-3H-[1,2,3]triazolo[4,5-d]pyrimidine-3-ylmethyl)indole-1-carboxylate]	143.6 to 144.5 °C
Nc1nc(-c2ccco2)c2nnn(Cc3cccc(Cl)c3)c2n1 [Example 27, 3-(3-chlorobenzyl)-7-(2-furyl)-3H-[1,2,3]triazolo[4,5-d]pyrimidine-5-amine]	209.9 to 210.1 °C
CC(C)c1cc(Cn2nnc3c(-c4ccco4)nc(N)nc32)nc(C(C)C)c1 [Example 199, 3-(4,6-diisopropyl-2-pyridylmethyl)-7-(2-furyl)-3H-[1,2,3]triazolo[4,5-d]pyrimidine-5-amine]	226.5 to 227.9 °C
COc1ccc([N+](=O)[O-])cc1Cn1nnc2c(-c3ccco3)nc(N)nc21 [Example 66, 7-(2-Furyl)-3-(2-methoxy-5-nitrobenzyl)-3H-[1,2,3]triazolo[4,5-d]pyrimidine-5-amine]	243.4 to 243.9 °C
